Reference: ChEMBL document CHEMBL1156129, “Synthesis, structure-activity relationships, and characterization of novel nonsteroidal and selective androgen receptor modulators” (J Med Chem, 2009)
pEC50: −log10 of the molar value. Calls of active or inactive are those of the source. The calls are words filed in the database; no cut-off is given here.

Columns and labels:
[1] = Plasma concentration in Sprague-Dawley rat at 10 mg/kg, po after 60 mins; assay type: ADME, organism-based; set-up: dose 10 mg/kg, route oral
[2] = Plasma concentration in Sprague-Dawley rat at 10 mg/kg, po after 120 mins; assay type: ADME, organism-based; set-up: dose 10 mg/kg, route oral
[3] = Plasma concentration in Sprague-Dawley rat at 10 mg/kg, po after 480 mins; assay type: ADME, organism-based; set-up: dose 10 mg/kg, route oral
[4] = AUC (8 hrs) in Sprague-Dawley rat at 10 mg/kg, po; assay type: ADME, organism-based; set-up: time < 8 hr, dose 10 mg/kg, route oral; conditions: plasma
[5] = Half life in Sprague-Dawley rat at 1 mg/kg, iv; assay type: ADME, organism-based; set-up: dose 1 mg/kg, route intravenous; conditions: in vivo
[6] = Clearance in Sprague-Dawley rat at 1 mg/kg, iv; assay type: ADME, organism-based; set-up: dose 1 mg/kg, route intravenous; conditions: in vivo
[7] = AUC (0 to infinity) in Beagle […] at 10 mg/kg, po; assay type: ADME, organism-based, Canis lupus familiaris; set-up: time infinity, dose 10 mg/kg, route oral; conditions: plasma
[8] = Half life in Beagle dog at 1 mg/kg, iv; assay type: ADME, organism-based, Canis lupus familiaris; set-up: dose 1 mg/kg, route intravenous; conditions: in vivo
[9] = Plasma concentration in Beagle dog at 1 mg/kg, iv after 0.08 hrs; assay type: ADME, organism-based, Canis lupus familiaris; set-up: dose 1 mg/kg, route intravenous
[10] = Plasma concentration in Beagle dog at 1 mg/kg, iv after 0.5 hrs; assay type: ADME, organism-based, Canis lupus familiaris; set-up: dose 1 mg/kg, route intravenous
[11] = Plasma concentration in Beagle dog at 1 mg/kg, iv after 4 hrs; assay type: ADME, organism-based, Canis lupus familiaris; set-up: dose 1 mg/kg, route intravenous
[12] = Plasma concentration in Beagle dog at 1 mg/kg, iv after 8 hrs; assay type: ADME, organism-based, Canis lupus familiaris; set-up: dose 1 mg/kg, route intravenous
[13] = Plasma concentration in Beagle dog at 10 mg/kg, po after 0.25 hrs; assay type: ADME, organism-based, Canis lupus familiaris; set-up: dose 10 mg/kg, route oral
[14] = Plasma concentration in Beagle dog at 10 mg/kg, po after 1 hrs; assay type: ADME, organism-based, Canis lupus familiaris; set-up: dose 10 mg/kg, route oral
Androgen receptor [15] = molecular target: T1, Androgen receptor (Mus musculus, UniProt P19091); assay: Agonist activity at androgen receptor in mouse NIH3T3 cells transiently transfected with beta-galactosidase reporter gene assessed as cellular transformation by R-SAT assay
T1 sequence (P19091 whole entry): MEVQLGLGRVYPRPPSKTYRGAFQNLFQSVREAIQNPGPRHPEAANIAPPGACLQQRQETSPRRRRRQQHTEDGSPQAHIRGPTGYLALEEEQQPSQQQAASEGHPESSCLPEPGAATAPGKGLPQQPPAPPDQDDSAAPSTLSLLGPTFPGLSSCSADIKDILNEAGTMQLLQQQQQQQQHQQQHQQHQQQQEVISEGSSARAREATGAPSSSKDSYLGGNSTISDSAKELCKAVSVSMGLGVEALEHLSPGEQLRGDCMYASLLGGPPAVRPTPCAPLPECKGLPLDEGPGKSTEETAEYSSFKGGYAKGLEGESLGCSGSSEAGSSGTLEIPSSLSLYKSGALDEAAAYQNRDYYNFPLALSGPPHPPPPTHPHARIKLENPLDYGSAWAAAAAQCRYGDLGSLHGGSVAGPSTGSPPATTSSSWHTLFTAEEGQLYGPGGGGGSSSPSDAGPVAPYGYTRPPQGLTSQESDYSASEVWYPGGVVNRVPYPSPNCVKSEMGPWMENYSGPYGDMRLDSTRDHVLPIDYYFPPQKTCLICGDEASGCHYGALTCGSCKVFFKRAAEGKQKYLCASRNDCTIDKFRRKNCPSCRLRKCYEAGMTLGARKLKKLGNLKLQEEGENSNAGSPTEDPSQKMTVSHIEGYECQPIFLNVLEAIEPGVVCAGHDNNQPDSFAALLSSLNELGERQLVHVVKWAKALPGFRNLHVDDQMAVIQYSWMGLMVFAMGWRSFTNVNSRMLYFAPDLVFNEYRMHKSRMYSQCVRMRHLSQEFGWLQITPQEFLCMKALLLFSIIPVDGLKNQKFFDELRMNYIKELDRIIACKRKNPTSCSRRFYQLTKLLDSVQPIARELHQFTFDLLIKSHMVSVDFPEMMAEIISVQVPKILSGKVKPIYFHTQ

Liver microsomes [16] = assay: Metabolic stability in human liver microsomes assessed as intrinsic clearance; assay type: ADME, Microsome
Liver microsomes [17] = assay: Metabolic stability in rat liver microsomes assessed as intrinsic clearance; assay type: ADME, Microsome
Androgen receptor [18] = molecular target: T2, Androgen receptor (Homo sapiens, UniProt P10275); assay: Agonist activity at androgen receptor in human MDA-KB2 cells transfected with MMTV linked luciferase assessed as transcriptional activation by luciferase reporter gene assay
T2 sequence (P10275 whole entry): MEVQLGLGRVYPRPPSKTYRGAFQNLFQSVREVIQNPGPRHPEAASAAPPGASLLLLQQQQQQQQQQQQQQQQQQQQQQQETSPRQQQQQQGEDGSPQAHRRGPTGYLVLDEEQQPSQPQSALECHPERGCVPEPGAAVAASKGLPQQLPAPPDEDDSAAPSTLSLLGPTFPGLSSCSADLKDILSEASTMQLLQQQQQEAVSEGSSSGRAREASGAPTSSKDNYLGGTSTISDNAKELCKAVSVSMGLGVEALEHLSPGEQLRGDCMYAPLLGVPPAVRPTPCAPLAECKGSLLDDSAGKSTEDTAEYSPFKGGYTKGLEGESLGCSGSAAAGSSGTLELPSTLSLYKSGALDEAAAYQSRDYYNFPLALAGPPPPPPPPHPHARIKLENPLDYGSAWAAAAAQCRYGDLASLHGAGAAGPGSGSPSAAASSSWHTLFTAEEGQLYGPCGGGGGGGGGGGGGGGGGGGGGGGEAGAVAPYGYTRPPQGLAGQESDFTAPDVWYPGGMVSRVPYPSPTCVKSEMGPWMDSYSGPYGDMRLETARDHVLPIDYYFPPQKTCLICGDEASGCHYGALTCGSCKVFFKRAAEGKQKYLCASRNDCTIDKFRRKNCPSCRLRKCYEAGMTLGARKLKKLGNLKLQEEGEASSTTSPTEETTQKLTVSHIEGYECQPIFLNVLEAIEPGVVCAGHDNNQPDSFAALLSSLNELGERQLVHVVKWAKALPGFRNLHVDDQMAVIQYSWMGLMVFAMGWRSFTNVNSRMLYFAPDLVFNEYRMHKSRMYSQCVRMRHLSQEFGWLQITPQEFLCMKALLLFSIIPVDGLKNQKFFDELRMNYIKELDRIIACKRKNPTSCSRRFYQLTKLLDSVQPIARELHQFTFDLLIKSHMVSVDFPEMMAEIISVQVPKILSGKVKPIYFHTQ

[19] = Plasma concentration in Sprague-Dawley rat at 1 mg/kg, iv after 1 min; assay type: ADME, organism-based; set-up: dose 1 mg/kg, route intravenous
[20] = Plasma concentration in Sprague-Dawley rat at 1 mg/kg, iv after 10 mins; assay type: ADME, organism-based; set-up: dose 1 mg/kg, route intravenous
[21] = Plasma concentration in Sprague-Dawley rat at 1 mg/kg, iv after 30 mins; assay type: ADME, organism-based; set-up: dose 1 mg/kg, route intravenous
[22] = Plasma concentration in Sprague-Dawley rat at 1 mg/kg, iv after 60 mins; assay type: ADME, organism-based; set-up: dose 1 mg/kg, route intravenous
[23] = Plasma concentration in Sprague-Dawley rat at 1 mg/kg, iv after 120 mins; assay type: ADME, organism-based; set-up: dose 1 mg/kg, route intravenous
[24] = Plasma concentration in Sprague-Dawley rat at 10 mg/kg, po after 30 mins; assay type: ADME, organism-based; set-up: dose 10 mg/kg, route oral
Rattus norvegicus = assay: Androgenic effect in rat ORX model assessed as reversal of testosterone propionate-induced prostate weight treated at 10 mg/kg, po; assay type: functional, organism-based; set-up: dose 10 mg/kg; conditions: Prostate gland
[25] = Plasma concentration in Sprague-Dawley rat at 1 mg/kg, iv after 240 mins; assay type: ADME, organism-based; set-up: dose 1 mg/kg, route intravenous
[26] = Plasma concentration in Sprague-Dawley rat at 10 mg/kg, po after 240 mins; assay type: ADME, organism-based; set-up: dose 10 mg/kg, route oral
[27] = Cmax in Beagle dog at 1 mg/kg, iv; assay type: ADME, organism-based, Canis lupus familiaris; set-up: dose 1 mg/kg, route intravenous; conditions: in vivo

Cc1c(N2[C@@H]3CC[C@H]2C[C@@](C)(O)C3)ccc(C#N)c1Cl
concentration at 1 h [1]: 263 ng/mL | concentration at 2 h [2]: 238 ng/mL | concentration at 8 h [3]: 253 ng/mL | AUC at 8 h [4]: 2370 ng·h/mL | half-life [5]: 2.46 h | clearance [6]: 24.4 mL/min/kg | AUC(0-inf) [7]: 2210 ng·h/mL | half-life [8]: 2.1 h | concentration at 0.08 h [9]: 357 ng/mL | concentration at 0.5 h [10]: 190 ng/mL | concentration at 4 h [11]: 18.5 ng/mL | concentration at 8 h [12]: 5.5 ng/mL | concentration at 0.25 h [13]: 835 ng/mL | concentration at 1 h [14]: 408 ng/mL | pEC50 (Androgen receptor [15]): 9.00 | CL (Liver microsomes [16]): 28 uL/ml.millig | CL (Liver microsomes [17]): 72 uL/ml.millig | pEC50 (Androgen receptor [18]): 9.60 | concentration at 1 min [19]: 824 ng/mL | concentration at 10 min [20]: 447 ng/mL | concentration at 0.5 h [21]: 234 ng/mL | concentration at 1 h [22]: 137 ng/mL | concentration at 2 h [23]: 74.3 ng/mL | concentration at 0.5 h [24]: 314 ng/mL | Activity (Rattus norvegicus): Active | concentration at 4 h [25]: 45.4 ng/mL | concentration at 4 h [26]: 353 ng/mL | Cmax [27]: 357 ng/mL
